Test systems include SF-268 CNS; EKVX NSCLC; SN12C renal; HT29 colon; HCT-15 colon; SW-620 colon; SF-295 CNS; OVCAR-3 ovarian; 786-0 renal; BT-549 breast; CAKI-1 renal; HL-60(TB) leukemia.
Common to all, as to assay: DTP human tumour cell line panel, 48 h

The structures appear in SMILES notation. Where “and” joins values, the source holds several entries; their conditions need not be identical. Equal values may be shown once.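 Test compounds were applied to cells in 96-well plates for 48 hours at 5 doses. GI50 marks 50% less growth. Definition used: TGI = concentration required for complete inhibition of growth.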

Turning to `CCc1c(-c2ccc(OC)cc2)oc(OC)c(C)c1=O`, the TGI in the assay with SF-268 CNS, with EKVX NSCLC, with SN12C renal, with HT29 colon, with HCT-15 colon and with SW-620 colon was over 100 µM in each case. In addition, the TGI in the assay on SF-295 CNS, in the assay with OVCAR-3 ovarian, with 786-0 renal, in the assay with BT-549 breast and with CAKI-1 renal was over 100 µM in each case.
Take `CC(=O)OC1[C@H](OC(C)=O)C2=C(C)[C@@H](OC(C)=O)C[C@@]2(C(C)(C)O)[C@@H](OC(C)=O)[C@H]2[C@@]1(C)[C@@H](OC(C)=O)CC(OC(C)=O)[C@]21CO1` (stereo not given in full): the TGI in the assay with SF-268 CNS, in the assay on EKVX NSCLC, in the assay on SN12C renal, in the assay on HL-60(TB) leukemia, with HT29 colon and in the assay on HCT-15 colon was over 100 µM throughout. Besides, the TGI in the assay with SW-620 colon, in the assay on SF-295 CNS, with OVCAR-3 ovarian, with 786-0 renal and with CAKI-1 renal was over 100 µM throughout.
As for `CCOC(=O)c1c(SC(=O)c2ccc(OC)cc2)n(-c2ccccc2)c(=S)n(-c2ccccc2)c1=O`, the TGI with SF-268 CNS was 43.4 µM; with EKVX NSCLC it was over 100 µM; in the assay with SN12C renal, over 100 µM; with HL-60(TB) leukemia it was 70.2 µM; in the assay on HT29 colon, over 100 µM; in the assay with HCT-15 colon, 47.8 µM. The TGI in the assay with SW-620 colon was 52.5 µM; in the assay with SF-295 CNS, over 100 µM; in the assay with OVCAR-3 ovarian, over 100 µM; in the assay on 786-0 renal, over 100 µM; with CAKI-1 renal, over 100 µM.
As to `COC1C(N(C)C)=C(c2ccccc2)C(=O)N2CCc3ccccc3C12` (stereo not given), the TGI in the assay on SF-268 CNS, with EKVX NSCLC, in the assay on SN12C renal, in the assay on HL-60(TB) leukemia, in the assay on HT29 colon and in the assay with HCT-15 colon was over 100 µM in each case. Besides, the TGI in the assay with SW-620 colon, in the assay with SF-295 CNS, in the assay on 786-0 renal and in the assay on CAKI-1 renal was over 100 µM each time.
With `COc1nc2ccc(COc3ccc(C(=O)O)cc3)cc2nc1OC`, the TGI with SF-268 CNS, in the assay with EKVX NSCLC, with SN12C renal, with HL-60(TB) leukemia, in the assay with HT29 colon and with HCT-15 colon was over 100 µM each time. Also, the TGI in the assay on SW-620 colon, with SF-295 CNS, in the assay with OVCAR-3 ovarian, with 786-0 renal and with CAKI-1 renal was over 100 µM in each case.
Regarding `Cc1nc2cc(Nc3ccccc3C(=O)O)ccc2s1`, the TGI in the assay with SF-268 CNS, in the assay on SN12C renal, in the assay with HL-60(TB) leukemia, in the assay with HT29 colon, with HCT-15 colon and in the assay with SW-620 colon was over 100 µM each time. In addition, the TGI with SF-295 CNS, in the assay with OVCAR-3 ovarian, with 786-0 renal and in the assay on CAKI-1 renal was over 100 µM throughout.
For the compound `C[C@H](CCC1SC1(C)C)C1CCC2(C)C3=C(CC[C@]12C)[C@@]1(C)CC[C@H](O)C(C)(C)C1CC3` (stereo not given in full), the TGI in the assay with SF-268 CNS, in the assay on EKVX NSCLC, with SN12C renal, with HL-60(TB) leukemia, in the assay on HT29 colon and with HCT-15 colon was over 100 µM throughout. For the same compound, the TGI with SW-620 colon, in the assay with SF-295 CNS, in the assay with OVCAR-3 ovarian, with 786-0 renal and in the assay on CAKI-1 renal was over 100 µM throughout.
Take `C#CCN(Cc1ccc2nc(-c3ccccc3)c(N)nc2c1)c1cc(OC)c(OC)c(OC)c1`: the TGI is over 100 µM in the assay on SF-268 CNS; over 100 µM in the assay with EKVX NSCLC; over 100 µM with SN12C renal; 41.4 µM with HL-60(TB) leukemia; 59 µM with HT29 colon; over 100 µM with HCT-15 colon. The TGI in the assay on SW-620 colon is over 100 µM; in the assay on SF-295 CNS, 66 µM; with OVCAR-3 ovarian, 59 µM; in the assay on 786-0 renal it was over 100 µM.
Regarding `O=C(Nc1ccc(S(=O)(=O)/N=c2\ncccn2C(=O)C(C(F)(F)F)C(F)(F)F)cc1)C(C(F)(F)F)C(F)(F)F`, the TGI in the assay on SF-268 CNS, with EKVX NSCLC, with SN12C renal, with HL-60(TB) leukemia, with HT29 colon and in the assay on HCT-15 colon was over 100 µM in each case. For the same compound, the TGI was over 100 µM in the assay with SF-295 CNS, over 100 µM in the assay on OVCAR-3 ovarian, over 100 µM with 786-0 renal and 0.242 µM in the assay with CAKI-1 renal.
On to `O=C(O)/C=C/c1ccc2c(c1)CC1(Cc3ccccc3C1)C2`, for which the TGI in the assay on EKVX NSCLC is over 100 µM; with SN12C renal, over 100 µM; with HL-60(TB) leukemia it was 90.5 µM; in the assay on HT29 colon, over 100 µM; in the assay on HCT-15 colon, over 100 µM; with SF-295 CNS, over 100 µM. Also, the TGI in the assay on OVCAR-3 ovarian and in the assay with 786-0 renal was over 100 µM throughout.
Turning to `CN(C)c1ccc(/C=C/c2sc3ccccc3[n+]2C)cc1`, the TGI was 17.5 µM and 23 µM in the assay on SF-268 CNS; 31.9 µM and 19.8 µM in the assay on EKVX NSCLC; 7.6 µM and 15.7 µM with SN12C renal; 11.8 µM and 12 µM with HT29 colon; 29.3 µM and 24.2 µM in the assay with HCT-15 colon; 24.8 µM and 23.1 µM in the assay on SF-295 CNS. The TGI was 3.82 µM and 2.86 µM in the assay on OVCAR-3 ovarian; 14.9 µM and > 100 µM in the assay with 786-0 renal; 13.2 µM and 11.6 µM in the assay with CAKI-1 renal. The GI50 in the assay with EKVX NSCLC is 9.19 µM and 2.31 µM; in the assay on SN12C renal, 1.71 µM and 0.645 µM; in the assay with HT29 colon, 2.71 µM and 1.14 µM.
In the case of `Cn1cc(S(=O)(=O)NC(=O)Nc2ccc(Cl)cc2)c(=O)c2ccc(F)cc21`, the TGI in the assay with SF-268 CNS, in the assay with EKVX NSCLC, with SN12C renal, with HL-60(TB) leukemia, in the assay with HT29 colon and in the assay with HCT-15 colon was over 100 µM throughout. Also, the TGI in the assay on SW-620 colon, in the assay with SF-295 CNS, in the assay with 786-0 renal and with CAKI-1 renal was over 100 µM each time.

The record behind these values is PubChem BioAssay (NCI).
